# Key:
# Assay type in all cases: cell-based
# IKAROS = target: T1, IKAROS (Homo sapiens, UniProt Q13422+Q96SW2); assay: IKAROS degradation assay (Western blot, MV-4-11 cells); details: MV4-11, 6-8 h
# T1 construct: endogenous in cells; host or cells: MV-4-11
# How it was run: (§1)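 Cells at about 10^6 per mL were exposed to compound or DMSO for 6-8 h, lysed in RIPA buffer, and analysed by SDS-PAGE Western blot with IRDye secondary antibodies on an Odyssey imager. Values are % degradation binned as A <25%, B 25-<50%, C 50-<75%, D ≥75%.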
# CDK16 = target: T2, CDK16 (Homo sapiens, UniProt Q00536); assay: CDK16 degradation assay (Western blot, MV-4-11 cells); details: 6-8 h; for Dmax at 0.1 µM: MV4-11, 0.1 μM; for Dmax at 1 µM: MV4-11, 1 μM
# T2 construct: Whole cell extracts were prepared using RIPA buffer; endogenous in cells; host or cells: MV-4-11
# T2 sequence (Q00536 whole entry): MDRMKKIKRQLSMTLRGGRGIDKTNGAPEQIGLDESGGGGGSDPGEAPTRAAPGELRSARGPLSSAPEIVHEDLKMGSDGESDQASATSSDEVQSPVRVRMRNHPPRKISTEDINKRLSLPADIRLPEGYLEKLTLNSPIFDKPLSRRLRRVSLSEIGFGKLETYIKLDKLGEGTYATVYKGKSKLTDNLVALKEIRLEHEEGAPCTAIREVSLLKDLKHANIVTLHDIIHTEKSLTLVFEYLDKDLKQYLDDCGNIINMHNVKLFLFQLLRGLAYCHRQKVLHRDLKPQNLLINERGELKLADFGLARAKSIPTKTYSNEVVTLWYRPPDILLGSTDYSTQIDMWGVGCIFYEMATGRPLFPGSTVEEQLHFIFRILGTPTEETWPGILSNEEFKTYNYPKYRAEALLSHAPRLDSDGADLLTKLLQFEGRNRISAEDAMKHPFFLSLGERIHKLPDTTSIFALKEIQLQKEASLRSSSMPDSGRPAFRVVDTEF
# How it was run: as §1
# GSPT1 = target: T3, GSPT1 (Homo sapiens, UniProt P15170+Q96SW2); assay: GSPT1 degradation assay (Western blot, MV-4-11 cells); details: MV4-11, 6-8 h
# T3 construct: Whole cell extracts were prepared using RIPA buffer; endogenous in cells; host or cells: MV-4-11
# T3 sequence (P15170 whole entry): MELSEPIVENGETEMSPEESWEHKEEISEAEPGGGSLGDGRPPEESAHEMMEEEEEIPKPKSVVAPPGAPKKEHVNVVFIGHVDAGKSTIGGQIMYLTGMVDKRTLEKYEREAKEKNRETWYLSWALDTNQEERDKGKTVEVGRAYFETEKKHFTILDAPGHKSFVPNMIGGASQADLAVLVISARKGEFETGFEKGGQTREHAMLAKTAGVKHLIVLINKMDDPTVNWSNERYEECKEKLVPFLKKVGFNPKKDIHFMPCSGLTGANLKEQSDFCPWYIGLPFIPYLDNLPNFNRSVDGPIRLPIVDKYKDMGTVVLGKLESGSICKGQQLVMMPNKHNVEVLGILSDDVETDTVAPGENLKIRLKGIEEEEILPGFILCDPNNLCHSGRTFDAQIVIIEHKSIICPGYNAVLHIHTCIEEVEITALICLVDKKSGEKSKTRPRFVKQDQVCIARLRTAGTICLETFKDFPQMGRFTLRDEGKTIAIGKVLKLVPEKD
# T3 sequence (Q96SW2 whole entry): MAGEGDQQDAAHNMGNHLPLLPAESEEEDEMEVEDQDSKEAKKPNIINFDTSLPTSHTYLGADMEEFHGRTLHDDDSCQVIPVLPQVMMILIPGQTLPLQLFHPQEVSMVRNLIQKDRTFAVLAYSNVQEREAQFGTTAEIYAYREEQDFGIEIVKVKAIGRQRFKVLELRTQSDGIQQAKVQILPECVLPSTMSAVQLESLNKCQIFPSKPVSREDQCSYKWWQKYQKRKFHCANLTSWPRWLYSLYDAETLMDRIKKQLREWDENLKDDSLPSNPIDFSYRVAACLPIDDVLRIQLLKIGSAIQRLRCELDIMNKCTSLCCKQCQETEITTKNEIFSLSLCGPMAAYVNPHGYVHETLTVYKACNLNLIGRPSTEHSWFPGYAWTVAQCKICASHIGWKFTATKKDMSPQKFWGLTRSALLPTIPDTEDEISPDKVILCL
# T3 sequence (Q16531 whole entry partner): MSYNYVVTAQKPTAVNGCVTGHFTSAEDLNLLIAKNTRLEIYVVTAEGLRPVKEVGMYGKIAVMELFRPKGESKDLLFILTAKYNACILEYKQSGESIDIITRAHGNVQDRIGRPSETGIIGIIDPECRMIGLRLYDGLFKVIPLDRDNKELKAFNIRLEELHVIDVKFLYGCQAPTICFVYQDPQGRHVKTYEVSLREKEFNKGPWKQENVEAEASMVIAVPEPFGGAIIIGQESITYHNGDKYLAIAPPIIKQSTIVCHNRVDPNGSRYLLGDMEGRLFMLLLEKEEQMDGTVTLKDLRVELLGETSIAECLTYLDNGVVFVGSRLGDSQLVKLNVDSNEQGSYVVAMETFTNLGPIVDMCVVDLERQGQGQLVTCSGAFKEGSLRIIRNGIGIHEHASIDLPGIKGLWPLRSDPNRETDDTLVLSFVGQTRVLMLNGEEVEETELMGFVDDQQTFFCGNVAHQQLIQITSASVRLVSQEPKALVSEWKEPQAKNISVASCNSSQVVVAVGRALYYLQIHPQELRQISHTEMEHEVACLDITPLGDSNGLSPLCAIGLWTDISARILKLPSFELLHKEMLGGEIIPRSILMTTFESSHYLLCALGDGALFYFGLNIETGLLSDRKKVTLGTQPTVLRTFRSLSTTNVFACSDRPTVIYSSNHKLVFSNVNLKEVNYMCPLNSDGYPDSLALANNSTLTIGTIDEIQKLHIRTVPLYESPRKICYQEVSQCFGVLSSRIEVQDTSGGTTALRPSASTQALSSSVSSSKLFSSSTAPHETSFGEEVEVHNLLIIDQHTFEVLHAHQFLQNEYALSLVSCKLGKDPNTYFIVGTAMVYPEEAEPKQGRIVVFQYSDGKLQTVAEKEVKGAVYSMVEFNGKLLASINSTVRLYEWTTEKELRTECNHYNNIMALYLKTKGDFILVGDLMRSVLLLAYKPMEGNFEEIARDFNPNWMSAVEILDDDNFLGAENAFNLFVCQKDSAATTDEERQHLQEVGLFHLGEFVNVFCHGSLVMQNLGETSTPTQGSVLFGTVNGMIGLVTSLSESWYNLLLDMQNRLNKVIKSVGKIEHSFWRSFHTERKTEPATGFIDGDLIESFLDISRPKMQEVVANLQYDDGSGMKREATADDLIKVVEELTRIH
# How it was run: as §1
# CDK9 = target: T4, CDK9 (Homo sapiens, UniProt P50750); assay: CDK9 degradation assay (Western blot, MV-4-11 cells); details: 6-8 h; for Dmax at 0.1 µM: MV4-11, 0.1 μM; for Dmax at 1 µM: MV4-11, 1 μM
# T4 construct: Whole cell extracts were prepared using RIPA buffer; endogenous in cells; host or cells: MV-4-11
# T4 sequence (P50750 whole entry): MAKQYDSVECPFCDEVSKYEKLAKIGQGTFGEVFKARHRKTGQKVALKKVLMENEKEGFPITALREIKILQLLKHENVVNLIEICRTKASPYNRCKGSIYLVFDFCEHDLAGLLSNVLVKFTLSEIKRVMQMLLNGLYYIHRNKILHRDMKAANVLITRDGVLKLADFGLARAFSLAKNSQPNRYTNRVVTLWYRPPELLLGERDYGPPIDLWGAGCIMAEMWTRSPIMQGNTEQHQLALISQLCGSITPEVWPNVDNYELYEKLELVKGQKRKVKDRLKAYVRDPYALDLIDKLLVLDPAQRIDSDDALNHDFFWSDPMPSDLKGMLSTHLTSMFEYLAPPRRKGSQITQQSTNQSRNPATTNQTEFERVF
# How it was run: as §1
# MOLM-13 cells = assay: MOLM-13 cell viability assay (CellTiter-Glo); details: Homo sapiens, MOLM-13, 72 h, 3 days, read-out: MOLM-13 Cell Viability % DMSO at 1 μM
# How it was run: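 MOLM-13 cells at 2500 cells/well were exposed to compound for 3 days at 37 °C. Viability was read by CellTiter-Glo luminescence and expressed as % of DMSO control, binned A (<50%), B (50–<70%), C (70–<90%) or D (≥90%).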
# CK1α = target: T5, CK1α (Homo sapiens, UniProt P48729+Q96SW2); assay: CK1α degradation assay (Western blot, MV-4-11 cells); details: MV4-11, 6-8 h
# T5 construct: Whole cell extracts were prepared using RIPA buffer; endogenous in cells; host or cells: MV-4-11
# T5 sequence (P48729 whole entry): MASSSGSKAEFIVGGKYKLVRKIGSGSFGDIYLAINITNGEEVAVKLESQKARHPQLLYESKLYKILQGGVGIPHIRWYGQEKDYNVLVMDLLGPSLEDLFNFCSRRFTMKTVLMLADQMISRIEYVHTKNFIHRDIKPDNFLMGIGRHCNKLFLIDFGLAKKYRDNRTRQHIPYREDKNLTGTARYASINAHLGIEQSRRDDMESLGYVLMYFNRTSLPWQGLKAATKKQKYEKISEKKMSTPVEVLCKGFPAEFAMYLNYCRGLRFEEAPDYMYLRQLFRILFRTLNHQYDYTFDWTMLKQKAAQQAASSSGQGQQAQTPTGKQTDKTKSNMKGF
# T5 sequence (Q96SW2 whole entry): as the sequence (Q96SW2 whole entry) above
# T5 sequence (Q16531 whole entry partner): as the sequence (Q16531 whole entry partner) above
# Protocol: MV-4-11 cells were grown in RPMI 1640 media supplemented with 10% fetal bovine serum, streptomycin and penicillin.
# Cells were cultured at approximately 10^6 cells per mL and incubated in DMSO or the indicated compound for 6-8 h. Whole cell extracts were prepared using RIPA buffer according to manufacturer's protocol (Pierce). Briefly, 3×10^6 cells were washed once in PBS, the cell pellets were resuspended in RIPA buffer and allowed to incubate for 15 minutes on ice. Cells debris was removed by centrifugation and the cleared whole cell lysates were transferred to new tubes for further analysis.
# For Western blot analysis, whole cell protein extracts were separated on 4-12% SDS-polyacrylamide gels, transferred to nitrocellulose and probed with the indicated primary antibodies. Membranes were subsequently washed and probed with the appropriate IRDye secondary antibodies (LI-COR). The signal was detected using the Odyssey Imaging System (LI-COR).
# The following antibodies were used in these studies: Anti-eRF3/GSPT1: Abcam, ab126090 (Cambridge, Mass.); Anti-Ikaros: Abcam, ab191394 (Cambridge, Mass.); Anti-CK1α: Abcam, ab108296 (Cambridge, Mass.); Anti-CDK9: Santa Cruz Biotechnology, sc13130 (Dallas, Tex.); Anti-CDK16: Millipore Sigma, HPA001366 (St. Louis, Mo.); 3-actin (8H10comD10) mouse monoclonal antibody: Cell Signaling Technology, #3700 (Danvers, Mass.); IRDye 680RD Goat anti-rabbit antibody: LI-COR, 926-68071 (Lincoln, Nebr.); IRDye 800CW Goat anti-mouse antibody: LI-COR, 926-32210 (Lincoln, Nebr.).
# CDK9 activities are shown in Table 4 at two different concentrations. CDK16 activities are shown in Table 5 at two different concentrations. In each of Tables 1-5, the % degradation values are reported as “A”, “B”, “C”, or “D”. “A” represents a % degradation value of less than 25% (value <25%). “B” represents a % degradation value of equal to or more than 25% and less than 50% (25%≤value<50%). “C” represents a % degradation value of equal to or more than 50% and less than 75% (50%≤value<75%). “D” represents a % degradation value of equal to or more than 75% (value ≥75%).
# IL-1β = IL-1β inhibition assay, LPS-induced PBMCs / CD14+ monocytes (Meso Scale); details: 1 h pretreatment, 100 ng/mL LPS 18-24 h
# How it was run: (§2)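 Thawed human PBMCs or CD14+ mobilized peripheral blood monocytes, 200,000 cells/well in RPMI-1640/10% FBS, pretreated with compound or DMSO 1 h, then stimulated with 100 ng/mL LPS for 18-24 h. Supernatant cytokine measured by Meso Scale; % inhibition binned A–D (<50%, 50–70%, 70–90%, ≥90%), fold-change binned A–D (≤0.1, ≤0.5, ≤1, >1).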
# IL-2 = IL-2 fold-change assay, anti-CD3 stimulated PBMCs (Mesoscale); details: PBMC, PBMCs on anti-human CD3, 24 h, fold difference from the DMSO control
# Protocol: For the IL-2 analysis, 96 well plates were precoated with 1 μg/mL anti-human CD3 antibody (OK3, eBioscience Inc., San Diego, Calif.). After washing with PBS, the indicated compound was added (50 μL/well) followed by PBMCs diluted at 3-4 million cells/mL (150 μL/well). Plates were incubated for 24 h and the supernatants collected for Mesoscale IL-2 analysis. IL-2 activity is measured as fold difference from the DMSO control.
# In Table 6, the % inhibition values are reported as “A”, “B”, “C”, or “D”. “A” represents a % inhibition value of less than 50% (value <50%). “B” represents a % inhibition value of equal to or more than 50% and less than 70% (50%≤value<70%). “C” represents a % inhibition value of equal to or more than 70% and less than 90% (70%≤value<90%). “D” represents a % inhibition value of equal or more than 90% (value ≥90%). In Table 7, the fold-change values are reported as “A”, “B”, “C”, or “D”. “A” represents a fold-change value of equal to or less than 0.1 (value ≤0.1). “B” represents a fold-change value of more than 0.1 and equal to or less than 0.5 (0.1<value≤0.5). “C” represents a fold-change value of more than 0.5 and equal to or less than 1 (0.5<value≤1). “D” represents a fold-change value of more than 1 (value >1).
# IL-6 = IL-6 inhibition assay, LPS-induced PBMCs / CD14+ monocytes (Meso Scale); details: 1 h pretreatment, 100 ng/mL LPS 18-24 h
# How it was run: as §2
# TNF-α = TNF-α inhibition assay, LPS-induced PBMCs / CD14+ monocytes (Meso Scale); details: 1 h pretreatment, 100 ng/mL LPS 18-24 h
# How it was run: as §2
# T1 sequence (Q13422 whole entry): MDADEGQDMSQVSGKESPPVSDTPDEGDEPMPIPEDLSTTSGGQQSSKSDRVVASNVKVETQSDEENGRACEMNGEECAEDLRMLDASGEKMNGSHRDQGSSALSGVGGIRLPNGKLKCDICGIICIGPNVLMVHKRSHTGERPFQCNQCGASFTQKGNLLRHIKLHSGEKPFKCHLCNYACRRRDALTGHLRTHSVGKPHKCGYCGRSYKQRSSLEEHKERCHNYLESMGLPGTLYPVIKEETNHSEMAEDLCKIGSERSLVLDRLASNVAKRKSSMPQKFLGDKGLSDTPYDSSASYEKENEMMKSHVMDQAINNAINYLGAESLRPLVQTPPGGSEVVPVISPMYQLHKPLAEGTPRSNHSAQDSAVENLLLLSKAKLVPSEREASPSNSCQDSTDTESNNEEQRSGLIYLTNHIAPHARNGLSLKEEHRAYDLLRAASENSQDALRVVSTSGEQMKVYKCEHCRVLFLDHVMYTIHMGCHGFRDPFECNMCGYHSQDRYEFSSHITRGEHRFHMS
# T1 sequence (Q96SW2 whole entry): as the sequence (Q96SW2 whole entry) above
# T1 sequence (Q16531 whole entry partner): as the sequence (Q16531 whole entry partner) above
Dmax at 1 µM (IKAROS),Dmax at 0.1 µM (CDK16),Dmax at 1 µM (CDK16),Dmax at 1 µM (GSPT1),Dmax at 0.1 µM (CDK9),Dmax at 1 µM (CDK9),Dmax at 1 µM (CK1α),SMILES,viability at 1 µM (MOLM-13 cells),inhibition at 1 µM (IL-1β),fold induction at 1 µM (IL-2),inhibition at 1 µM (IL-6),inhibition at 1 µM (TNF-α)
50 to 75%,25 to 50%,50 to 75%,50 to 75%,50 to 75%,50 to 75%,< 25%,"Cn1ncc(-c2nc(N[C@H]3CC[C@H](NCC(=O)NCCCCCNCC(=O)NCc4cc5c(s4)C(=O)N(C4CCC(=O)NC4=O)C5)CC3)ncc2Cl)c1CC1CC1 (some centres unmarked) [Compound 30, 2-(((1r,4r)-4-((5-chloro-4-(5-(cyclopropylmethyl)-1-methyl-1H-pyrazol-4-yl)pyrimidin-2-yl)amino)cyclohexyl)amino)-N-(5-((2-(((5-(2,6-dioxopiperidin-3-yl)-6-oxo-5,6-dihydro-4H-thieno[2,3-c]pyrrol-2-yl)methyl)amino)-2-oxoethyl)amino)pentyl)acetamide]",> 90%,–,–,–,–
50 to 75%,< 25%,50 to 75%,≥ 75%,25 to 50%,25 to 50%,25 to 50%,"Cn1ncc(-c2nc(N[C@H]3CC[C@H](NCC(=O)NCCCCNCC(=O)NCc4cc5c(s4)C(=O)N(C4CCC(=O)NC4=O)C5)CC3)ncc2Cl)c1CC1CC1 (some centres unmarked) [Compound 35, 2-(((1r,4r)-4-((5-chloro-4-(5-(cyclopropylmethyl)-1-methyl-1H-pyrazol-4-yl)pyrimidin-2-yl)amino)cyclohexyl)amino)-N-(4-((2-(((5-(2,6-dioxopiperidin-3-yl)-6-oxo-5,6-dihydro-4H-thieno[2,3-c]pyrrol-2-yl)methyl)amino)-2-oxoethyl)amino)butyl)acetamide]",> 90%,–,–,–,–
–,–,–,–,–,–,–,"Cn1ncc(-c2nc(N[C@H]3CC[C@H](NCC(=O)NCCOCCOCCOCCNC(=O)NCc4cc5c(s4)C(=O)N(C4CCC(=O)NC4=O)C5)CC3)ncc2Cl)c1CC1CC1 (some centres unmarked) [Compound 46, 2-(((1r,4r)-4-((5-chloro-4-(5-(cyclopropylmethyl)-1-methyl-1H-pyrazol-4-yl)pyrimidin-2-yl)amino)cyclohexyl)amino)-N-(1-(5-(2,6-dioxopiperidin-3-yl)-6-oxo-5,6-dihydro-4H-thieno[2,3-c]pyrrol-2-yl)-3-oxo-7,10,13-trioxa-2,4-diazapentadecan-15-yl)acetamide]",> 90%,70 to 90%,0.1 to 0.5,70 to 90%,50 to 70%
50 to 75%,25 to 50%,50 to 75%,≥ 75%,50 to 75%,≥ 75%,25 to 50%,"Cn1ncc(-c2nc(N[C@H]3CC[C@H](NCC(=O)NCCNCC(=O)NCc4cc5c(s4)C(=O)N(C4CCC(=O)NC4=O)C5)CC3)ncc2Cl)c1CC1CC1 (some centres unmarked) [Compound 40, 2-(((1r,4r)-4-((5-chloro-4-(5-(cyclopropylmethyl)-1-methyl-1H-pyrazol-4-yl)pyrimidin-2-yl)amino)cyclohexyl)amino)-N-(2-((2-(((5-(2,6-dioxopiperidin-3-yl)-6-oxo-5,6-dihydro-4H-thieno[2,3-c]pyrrol-2-yl)methyl)amino)-2-oxoethyl)amino)ethyl)acetamide]",70 to 90%,–,–,–,–
50 to 75%,< 25%,50 to 75%,≥ 75%,≥ 75%,≥ 75%,≥ 75%,"CC(C)(C)c1cnc(CSc2cnc(NC(=O)C3CCN(CC(=O)NCCCCCNCC(=O)NCc4scc5c4CN(C4CCC(=O)NC4=O)C5=O)CC3)s2)o1 (centres unmarked) [Compound 33, N-(5-(((5-(tert-butyl)oxazol-2-yl)methyl)thio)thiazol-2-yl)-1-(2-((5-((2-(((5-(2,6-dioxopiperidin-3-yl)-4-oxo-5,6-dihydro-4H-thieno[3,4-c]pyrrol-1-yl)methyl)amino)-2-oxoethyl)amino)pentyl)amino)-2-oxoethyl)piperidine-4-carboxamide]",> 90%,–,–,–,–
25 to 50%,< 25%,≥ 75%,50 to 75%,25 to 50%,≥ 75%,25 to 50%,"Cn1ncc(-c2nc(N[C@H]3CC[C@H](NCC(=O)NCCCCNCC(=O)NCc4scc5c4CN(C4CCC(=O)NC4=O)C5=O)CC3)ncc2F)c1CC1CC1 (some centres unmarked) [Compound 39, 2-(((1r,4r)-4-((4-(5-(cyclopropylmethyl)-1-methyl-1H-pyrazol-4-yl)-5-fluoropyrimidin-2-yl)amino)cyclohexyl)amino)-N-(4-((2-(((5-(2,6-dioxopiperidin-3-yl)-4-oxo-5,6-dihydro-4H-thieno[3,4-c]pyrrol-1-yl)methyl)amino)-2-oxoethyl)amino)butyl)acetamide]",> 90%,–,–,–,–
25 to 50%,–,–,50 to 75%,–,–,25 to 50%,"CC(C)(C)c1cnc(CSc2cnc(NC(=O)C3CCN(CC(=O)NCCCNCC(=O)NCc4cc5c(s4)C(=O)N(C4CCC(=O)NC4=O)C5)CC3)s2)o1 (centres unmarked) [Compound 52, N-(5-(((5-(tert-butyl)oxazol-2-yl)methyl)thio)thiazol-2-yl)-1-(2-((3-((2-(((5-(2,6-dioxopiperidin-3-yl)-6-oxo-5,6-dihydro-4H-thieno[2,3-c]pyrrol-2-yl)methyl)amino)-2-oxoethyl)amino)propyl)amino)-2-oxoethyl)piperidine-4-carboxamide]",> 90%,–,–,–,–
≥ 75%,–,–,50 to 75%,–,–,25 to 50%,"Cn1ncc(-c2nc(N[C@H]3CC[C@H](NCC(=O)NCCOCCOCCOCCNc4cccc5c4C(=O)N(C4CCC(=O)NC4=O)C5=O)CC3)ncc2F)c1CC1CC1 (some centres unmarked) [Compound 50, 2-(((1r,4r)-4-((4-(5-(cyclopropylmethyl)-1-methyl-1H-pyrazol-4-yl)-5-fluoropyrimidin-2-yl)amino)cyclohexyl)amino)-N-(2-(2-(2-(2-((2-(2,6-dioxopiperidin-3-yl)-1,3-dioxoisoindolin-4-yl)amino)ethoxy)ethoxy)ethoxy)ethyl)acetamido]",> 90%,–,–,–,–
